Measured values as given in paper PMC8868285, “Pharmacological Inhibition of Epac1 Averts Ferroptosis Cell Death by Preserving Mitochondrial Integrity” (Antioxidants, 2022).

Experiments:
HT-22 cells [1] = test: Soluble ROS, CM-DCF FACS; assay type: cell-based, mouse
Procedure: Soluble ROS was evaluated by CM-DCF fluorescent dye (Invitrogen, Oregon City, OR, USA). CM-DCF passively diffuses into cells, and reacts with glutathione and other thiols following cleavage by intracellular esterases, which in turn exposes the thiol-reactive chloromethyl group. The oxidation that follows results in a fluorescent adduct that is ensnared within the cell. The higher the fluorescence, the more cellular ROS is produced in the cells.

HT-22 cells [2] = test: Cell death assessment, FACS analysis of PI staining
Procedure: (§1) Flow cytometry analysis using the CytoFLEXS benchtop flow cytometer (Beckman Coulter Life Sciences, Indianapolis, IN, USA) was used to evaluate intracellular parameters that are associated with not only oxidative stress but also mitochondrial dysfunction, and cell death. HT-22 cells (40,000 cells/well) seeded in 24-well plates were treated with various conditions. Treatment groups included: control condition (DMSO 1%), erastin 1 µM or 1.5 µM, CE3F4 100 µM, and co-treatment of erastin and CE3F4. Three separate wells were analyzed for each condition and the same number of counts (10,000/well) were measured by flow cytometry. At least three independent experiments were performed, and the Kaluza Analysis 1.5 software was employed for quantification of data.
The amount of cell death after stimulation with erastin for 16–17 h was assessed by incubating trypsonized HT-22 cell suspension with propidium iodide (PI) (Invitrogen, Oregon City, OR, USA, #V13242, Lot #2008168) in a binding buffer. Incubation with the dye was for 30 min at RT. Fluorescence was detected at 494/518 and 535/617 for FITC and PI respectively.

HT-22 cells [3] = test: Mitochondrial superoxide, MitoSOX FACS
Procedure: as §1
MitoSOX dye (Invitrogen, Oregon City, OR, USA, #M36008, Lot#1924466) was used to evaluate mitochondrial ROS. The MitoSOX dye is able to permeate live cells and also selectively target mitochondria where it is swiftly oxidized by superoxides but not by other reactive oxygen species. […] Incubation of HT-22 cells with MitoSOX™ 1.25 μM dye was done for 30 min at 37 °C. Fluorescence excitation and detection were done at 488 nm and 690/50 nm respectively.

HT-22 cells [4] = test: Mitochondrial membrane potential, TMRE FACS; conditions: for effect on erastin-induced ΔΨm loss: no significant difference to control
Procedure: as §1
Staining with TMRE™ dye (tetramethylrhodamine-ethyl ester; Invitrogen, Oregon City, OR, USA, #T669) was used to determine loss of mitochondrial membrane potential (MMP) (ΔΨm). […] Collected cells were incubated for 20 min with TMRE 0.2 μM at 37 °C. Fluorescence excitation and detection were done at 488 nm 690/50 nm respectively.

Epac1 = conditions: CE3F4, Epac1 inhibitor; cited from earlier work
HT-22 cells [5] = test: Mitochondrial morphology (MitoTracker Deep Red, categories I-III); assay type: cell-based, mouse
Procedure: Mitochondrial morphology was assessed using imaging of HT-22 cells stained with MitoTracker™Deep Red FM (Invitrogen, Oregon City, OR, USA, #M22426). Cells were treated with either erastin 1 µM, CE3F4 100 µM, or co-treated with erastin 1 µM and CE3F4 100 μM for 18 h. After the treatment, cells were incubated with 200 nM MitoTracker™Deep Red FM for 30 min at 37 °C. Untreated cells were included as controls. 4% paraformaldehyde (PFA) was used for fixation and detection of the MitoTracker fluorescence was achieved by 620 nm (excitation) and 700 ± 75 nm (detection). 500 cells per condition were counted and grouped into three different categories, based on their mitochondrial morphology/shape. The analysis and categorization of mitochondria was done by an investigator without previous knowledge of the various experimental conditions. Category I included healthy cells with mitochondria that form an elongated tubular network that is distributed equally throughout the cytosol. It could also include short mitochondria, but distributed in the cytosol. On the other hand, Category II included cells which contained large, and fragmented/granulated mitochondria around the nucleus. […] Category III represented damaged and dying cells with observed small rounded mitochondria of varying sizes and in proximity to the nucleus.. At least three independent experiments were performed.

HT-22 cells [6] = test: Extracellular flux analysis (Seahorse), oxygen consumption rate; assay type: cell-based, mouse
Procedure: Cellular Oxygen Consumption Rate (OCR) was measured by using an XFe96 extracellular flux analyzer (Seahorse Bioscience, Billerica, MA, USA) which also entailed the mitochondrial stress test as described previously. HT-22 cells (10,000 cells/well) were seeded onto the XFe96-well cell culture microplate and incubated at 37 °C, 5% CO2. 24 h before the assay, the growth medium was replaced with a fresh medium containing either DMSO 1%, erastin 1 µM, CE3F4 alone, ESI-05 alone or a co-treatment of erastin with either CE3F4 or ESI-05. Cells in 180 μL of assay non-buffered DMEM medium supplemented with 2 mM glutamine, 4.5 g/L glucose and 1 mM pyruvate, pH 7.35 were incubated for 1 h in a CO2 free incubator at 37 °C. Basal respiration was measured before injecting the inhibitors that included; oligomycin (4 μM; port A)—an ATP synthase inhibitor; 2,4-dinitrophenol (DNP) (Sigma–Aldrich Chemie GmbH, Steinheim, Germany, #34334) (50 μM; port B)—a mitochondrial oxidative phosphorylation uncoupler; and rotenone (Sigma–Aldrich Chemie GmbH, Steinheim, Germany, #R8875) together with antimycin A (Sigma–Aldrich Chemie GmbH, Steinheim, Germany, #A8674) 0.1 μM and 1 μM; port C)—complex I and complex III inhibitors. By using the BCA assay, OCR measurements were normalized to the protein amount in every well. Three independent experiments with six wells per condition were performed, and a one-way ANOVA test was used to determine statistical significance among different groups.

HT-22 cells [7] = test: Lipid peroxidation, BODIPY FACS; conditions: 100 μM CE3F4 + erastin 1 μM
Procedure: as §1
The staining dye BODIPY 2 μM (Invitrogen, Karlsruhe, Germany, # D3861, Lot # 1890330) was used to estimate lipid peroxidation. Erastin treatment was done for 4 h. HT-22 cells were then stained for 30 min at RT, followed by a one-time wash with PBS and finally analyzed. Fluorescence excitation and detection were done at 488 nm and 530 nm respectively.

HT-22 cells [8] = test: Brightfield images of cell morphology; assay type: cell-based, mouse; conditions: 100 μM CE3F4 + erastin 1 μM
HT-22 cells [9] = test: xCELLigence real-time cell impedance measurement; assay type: cell-based, mouse; conditions: ≥30 µM CE3F4 (30 and 100 μM), erastin 1 μM
Procedure: Cell viability and metabolic activity of cells was first assessed using a colorimetric 3-(4,5-dimethylthiazol-2-yl)-2,5-diphenyltetrazolium Bromide (MTT) (Sigma–Aldrich Chemie GmbH, Steinheim, Germany, #M5655) reduction assay. Cells in a 96-well plate format (8–10,000 cells/well) were incubated with the MTT solution (0.5 mg/mL) for a maximum of 1 h at 37 °C. Afterward, the MTT-containing solution was entirely removed, and the 96-well plate was incubated at −80 °C for at least 2 h. To allow formazan to uniformly disperse in the medium, dimethyl sulfoxide (DMSO) (Sigma–Aldrich Chemie GmbH, Steinheim, Germany, #D8418, Lot# SHBH9942) was administered to the cells for 1 h at 37 °C with continuous shaking. The absorbance values were determined by Synergy™H1 (Bad Friedrichshall, Germany) Hybrid MultiMode Reader at 570 nm with a 630 nm reference filter. The absorbance values of untreated healthy cells or cells treated with DMSO 1% (used as a solvent for various pharmacological applications) were regarded as 100% of cell viability. […] HT-22 cells were treated with the following conditions: control condition (solvent), drug of interest, erastin, and pre- or co-treatment with erastin and drug of interest. […] Continuous cell monitoring was performed by using an E-plate 96 and the cellular impedance or cell resistance was assessed every 15 min for 24 h.

[10] = CE3F4 + erastin 1 μM vs erastin alone

CC1CCc2c(cc(Br)c(F)c2Br)N1C=O (stereo not shown) [CE3F4]
intracellular ROS production (CM-DCF) (HT-22 cells [1]; 100 μM CE3F4 + erastin vs erastin alone, not restored to control levels): significant decrease in intracellular ROS production
total intracellular ROS production (CM-DCF) (HT-22 cells [1]; 100 μM CE3F4 alone): did not influence the amount of total intracellular ROS production
effect on erastin-induced cell death (PI staining) (HT-22 cells [2]; co-treatment 30 μM CE3F4 + erastin 1 μM): markedly attenuated
effect on erastin-induced cell death (PI staining) (HT-22 cells [2]; co-treatment 100 μM CE3F4 + erastin 1 μM): markedly attenuated
mitochondrial superoxide levels (HT-22 cells [3]; 30 μM CE3F4 alone): shift towards the intermediate mitochondrial superoxide
mitochondrial superoxide levels (intermediate) (HT-22 cells [3]; 100 μM CE3F4 alone, compared with 30 μM): further increased
effect on erastin-mediated mitochondrial superoxide levels (HT-22 cells [3]; CE3F4 30 μM + erastin 1 μM): did not affect erastin-mediated effects on mitochondrial superoxide levels
effect on erastin-mediated mitochondrial superoxide levels (HT-22 cells [3]; CE3F4 100 μM + erastin): significantly attenuated the increase in high mitochondrial superoxide levels
effect on erastin-induced ΔΨm loss (HT-22 cells [4]; 100 µM CE3F4 + erastin 1 μM): significantly attenuated ΔΨm loss
effect on erastin-induced ΔΨm loss (HT-22 cells [4]; 100 µM CE3F4 + erastin 1.5 μM): significantly attenuated ΔΨm loss
mitochondrial membrane potential (ΔΨm) (HT-22 cells [4]; CE3F4 alone): slight hyperpolarization
IC50 (Epac1): 23 ± 3 µM
mitochondrial morphology, category III (HT-22 cells [5]; 30 µM CE3F4 + erastin 1 μM vs erastin alone): significant decrease of category III mitochondrial fragmentation
mitochondrial morphology (HT-22 cells [5]; 100 μM CE3F4 + erastin 1 μM): completely abolished the effects of erastin on mitochondrial morphology
mitochondrial morphology (HT-22 cells [5]; CE3F4 alone (100 µM)): did not alter mitochondrial morphology
maximal respiration (HT-22 cells [6]; 100 μM CE3F4 alone): increased maximal respiration
ATP-linked OCR (HT-22 cells [6]; [10]): did not reach statistical significance
basal OCR (HT-22 cells [6]; [10]): did not reach statistical significance
maximal OCR (HT-22 cells [6]; [10]): significantly increased
effect on erastin-induced lipid peroxidation (HT-22 cells [7]): significantly attenuated
effect on erastin-induced alteration in cell morphology (HT-22 cells [8]): prevented
protection against erastin-induced cell death (cell impedance) (HT-22 cells [9]): markedly prevented erastin-induced cell death
